Measured values as given in US8946507B2, “Method of selectively producing male or female sterile plants” (priority 2002, dated 2015).

What was measured:
[1] = test system: Nicotiana tabacum var. Samsun (transgenic, D-amino acid oxidase under female floral promoter); assay: Conditional female sterility of transgenic tobacco expressing D-amino acid oxidase in female floral tissue, treated with D-amino acids; type: in vivo; conditions: for seed production after treatment: foliar spray usually 0.25-20 kg/ha, root drench or 10-200 mM solution into buds, prior to or during early flower formation; for viable pollen production after treatment: same treatment conditions as for seed production
Description: Tobacco leaf discs are transformed with the recombinant binary vectors using methods similar to those described in Horsch et al (1985) Science, 227, 1229-1231 Many variations of the method may be used. The binary vector can be transformed into, for example, Agrobacterium tumefaciens strain LBA 4404 using the freeze thaw method of transformation. Tobacco transformation and whole plant regeneration is performed using Nicotiana tabacum var. Samsun according to protocols described by Draper et al (Plant Genetic Transformation, Blackwell Sci. Pub. 1989). Transformation events are selected on MS-media containing kanamycin or other suitable antibiotic. The presence of integrated transgenes is confirmed by PCR. Plants are regenerated and allowed to reach maturity and selfed on to produce seed. Northern and/or Western analysis is used to confirm tissue-specific expression of the D-amino acid oxidase genes. […] Seeds of the T1 generation are planted out. Once plantlets have grown to a sufficient size they are tested by PCR for the presence of transgene. PCR positive plants are transferred to the greenhouse. […] A subset of these (putatively) conditionally sterile plants are treated with D-phosphinothricin or D-alanine or D leucine or D asparagine or D methionine or D-aspartate or D-glutamate in various amounts and at varying growth stages. […] For example these amino acids are pure D enantiomers or, alternatively, are DL racemates. For example, they are applied as a foliar spray, prior to or during the early stages of flower formation, at rates usually between 0.25 and 20 kg/ha. Amino acids which may crystallise out of solution on the leaves following foliar application may be redissolved and remobilised for leaf uptake by further applications of water as a spray mist. Amino acids are, for example, also applied as a root drench and optionally, further applied as ˜50 ul of a 10-200 mM solution flooded directly into the buds of emerging florets. Pollen from the treated plants is collected and viability is tested. […] Control plants are both transgenic and non-transgenic and are grown under identical conditions and under an identical regime of physical treatments except that treatment solutions are either water or an equivalent concentration of pure L-amino acid.

[2] = test system: mutant forms of R. gracilis D amino acid oxidase; assay: Oxygen electrode assay, control experiments with pure enantiomers; type: biochemical, Rhodotorula gracilis; conditions: rate relative to DL phosphinothricin, depending on concentration
Description: Approximately 7 g wet weight of cells is washed in water. The cells are resuspended in an equal volume of 50 mM/Mops/KOH buffer at pH 7.0 containing 2 mM EDTA, 2 mM DTT and 0.01 mM FAD. Cells are evenly suspended using a glass homogeniser and then disrupted using a one shot head in the Constant Systems (BudBrooke Rd, Warwick U.K.) Basic Z cell disrupter at 13500 psi. The crude extract is kept cold (˜4° C.) centrifuged at 30,000 gav for 1 h and the pellet discarded. Some of the extract protein is run out on an SDS PAGE gel stained with Coomassie Blue and, through side by side comparison with similarly prepared extracts of cells containing only ‘empty’ pET vector it is estimated that 2-50% of the total soluble protein in the extract is D-amino acid oxidase. Some of the extract protein is exchanged into 50 mM Mops/KOH buffer at pH 7.0 containing 0.01 mM FAD. This is diluted with the same buffer in a standard oxygen electrode cell (calibrated at 25° C. between zero and a saturated concentration of oxygen). Optionally, the D-amino acid oxiadse is further purified using ion-exchange, phenyl sepharose, fractional ammonium sulphate precipitation and gel filtration. Assays, at 25° C., are started by addition of a 200 mM solution of the ammonium salt of DL phosphinothricin to the diluted enzyme. […] Rates of oxygen consumption (after substraction of any drift in the bases line) are measured. […]

[3] = molecular target: T1, M213R (arginine replacement for methionine) mutant form of R. gracilis D amino acid oxidase (Rhodotorula toruloides, UniProt P80324, M213R); assay: Oxygen electrode assay of D-amino acid oxidase activity, M213R mutant, crude E. coli extract; type: biochemical; conditions: 25° C., 50 mM Mops/KOH pH 7.0, 0.01 mM FAD; ammonium salt of DL phosphinothricin; estimated enzyme purity in extract 35+/-15% of total protein
T1 construct: made in house; host or cells: E. coli BL21 DE3 (Novagen pET 24A, T7 promoter)
From the text: (§1) Additionally a series of particular DNA sequences encoding particularly targeted D-amino acid oxidase enzymes are generated. In particular, genes encoding Rhodotorula gracilis D amino acid oxidase with an arginine, serine, cysteine, lysine, asparagine or alanine replacing the methionine at position 213 and/or a histidine, serine, cysteine, asparagine or alanine replacing the tyrosine at position 238. The methods used are the same as described above except that, rather than a mixture of oligonucleotides, individual oligonucleotide pairs are designed and used to effect each single or double amino acid change. Each resulting mutant D-amino acid oxidase coding sequence is cloned for (untagged) expression behind the T7 promoter in Novagen pET 24A and transformed into E. coli BL21 DE3. The cells are grown in a 1.0 l fermenter in LCM50 medium supplemented with 100 ug/ml kanamycin, induced for expression with 1 mM IPTG and harvested by low-speed centrifugation.
(§2) Approximately 7 g wet weight of cells is washed in water. The cells are resuspended in an equal volume of 50 mM/Mops/KOH buffer at pH 7.0 containing 2 mM EDTA, 2 mM DTT and 0.01 mM FAD. […] Rates of oxygen consumption (after substraction of any drift in the bases line) are measured. […]

[4] = test system: Nicotiana tabacum (transgenic, stig 1 D-amino acid oxidase and plastocyanin/PAT); assay: Transgenic tobacco (stig1 D-amino acid oxidase M213R plus plastocyanin promoter PAT) sprayed with DL phosphinothricin; type: in vivo
From the text: In one variant of the method, the amino acid applied is racemic DL phosphinothricin. In this case, the DNA construct used for transformation comprises, in addition to the DNA sequence encoding a D-amino acid oxidase under operable expression control of a tissue specific female floral promoter region such as ‘stig 1’, also a DNA sequence (EMBL: A02774) a ‘PAT’ gene under operable control of a promoter region such as the region 5′ of the translational start of the plastocyanin gene of the Pisum sativum plastocyanin gene (EMBL accession number X16082). For example, the construct is the same as depicted in FIG. 1 except that the DNA sequence encoding D-amino acid oxidase is site-specifically mutated so that the M213R form of the enzyme is encoded. The plastocyanin promoter region provides for preferential expression in the green tissues of the plant. […] Thus, in this variant of the example, the non-phytotoxic substance D phosphinothricin is applied in its least costly and most readily available form as the commercial herbicide DL phosphinothricin racemate.

[5] = molecular target: T2, M213S (serine replacement for methionine) mutant form of R. gracilis D amino acid oxidase (Rhodotorula toruloides, UniProt P80324, M213S); assay: Oxygen electrode assay of D-amino acid oxidase activity, M213S mutant, crude E. coli extract; type: biochemical; conditions: 25° C., 50 mM Mops/KOH pH 7.0, 0.01 mM FAD; ammonium salt of DL phosphinothricin; estimated enzyme purity in extract 35+/-15% of total protein
T2 construct: made in house; host or cells: E. coli BL21 DE3 (Novagen pET 24A, T7 promoter)
From the text: as §1, §2

[6] = test system: wheat containing a PAT gene under barley plastocyanin promoter region; assay: Reproductive tolerance of wheat containing PAT gene under barley plastocyanin promoter to DL phosphinothricin; type: in vivo; conditions: rates up of at least 2 kg/ha
From the text: The current invention provides a method of overcoming the problem of enabling the use of a cheap commercial herbicide, DL phosphinothricin, as both weed control and hybridising agent in the production of hybrid cereals and which method, furthermore, provides resultant hybrid cereals or rice in which DL phosphinothricin (or L phosphinothricin) can be safely used for weed control without substantial loss of yield. As a yet further benefit, selfed seed from the F1 generation which may later arise as volunteers in subsequent crops will be easier to manage since they, themselves, will generally be sterile if sprayed with controlling amounts of DL phosphinothricin. The same will hold for the progeny of pollen outcrossing from the F1 plants to weeds (e.g. red rice) or other cereals. The current invention provides genes and enzymes that convert a non-phytotoxic component, D-phosphinothricin, of a commercial herbicide formulation DL phosphinothricin, into the active L form. The PAT gene which converts L-phosphinothricin to N-acetyl L-phosphinithricin is known already and is used commercially to provide tolerance to DL phosphinothricin in crops. […]

[7] = test system: tobacco plants (transgenic, TA 29 D-amino acid oxidase and plastocyanin/PAT); assay: Transgenic tobacco (TA 29 D-amino acid oxidase plus plastocyanin promoter PAT) sprayed with DL phosphinothricin; type: in vivo; conditions: spray, rates between 250 g/ha and 5 kg/ha
From the text: Analagous to example 1, in one variant of the example, the amino acid applied is racemic DL phosphinothricin. In this case the DNA construct used for transformation comprises, in addition to the DNA sequence encoding a D-amino acid oxidase under operable expression control of a tissue specific male floral promoter region such as ‘TA 29’, also a DNA sequence encoding a phosphinothricin N-acetyl transferase gene such as the ‘PAT’ gene under operable control of a promoter region such as that from the plastocyanin gene (in this case the region from the Pisum sativum plastocyanin gene).

[8] = spray, rates between 250 g/ha and 5 kg/ha

Row | SMILES | seed production after treatment [1] | viable pollen production after treatment [1] | other results
1 | C[C@@H](N)C(=O)O [D alanine] | relatively little or no seed | near normal levels of viable pollen | –
2 | NC(=O)C[C@@H](N)C(=O)O [D asparagine] | relatively little or no seed | near normal levels of viable pollen | –
3 | N[C@H](CC(=O)O)C(=O)O [D aspartate] | relatively little or no seed | near normal levels of viable pollen | –
4 | N[C@H](CCC(=O)O)C(=O)O [D glutamate] | relatively little or no seed | near normal levels of viable pollen | –
5 | CC(C)C[C@@H](N)C(=O)O [D leucine] | relatively little or no seed | near normal levels of viable pollen | –
6 | CSCC[C@@H](N)C(=O)O [D methionine] | relatively little or no seed | near normal levels of viable pollen | –
7 | CP(=O)(O)CC[C@@H](N)C(=O)O [D-phosphinothricin] | relatively little or no seed | near normal levels of viable pollen | oxidation of pure enantiomer in control experiments [2]: up to twice the rate that the DL is
8 | CP(=O)(O)CCC(N)C(=O)O (stereo not drawn) [DL phosphinothricin] | – | – | rate of oxidation (oxygen consumption) [3]: ~14 nmol/min/mg of protein of crude extract; yield of plastocyanin/PAT plants without D to L converting activity in floral tissues ([4]; no heterologous D-amino acid oxidase co-expressed in floral tissues): no significant loss of yield; reproductive tolerance to the herbicide of plants with plastocyanin promoter/PAT gene ([4]; rates in excess of 2 kg/ha): substantially complete reproductive tolerance; female fertility of treated plants [4, 8]: conditionally female sterile; male fertility of treated plants [4, 8]: normal or near-normal male fertility; visible damage of treated plants [4, 8]: not visibly damaged; rate of oxidation (oxygen consumption) [5]: ~4 nmol/min/mg of protein of crude extract; reproductive tolerance to application [6]: substantially reproductively tolerant; female fertility of treated plants [7]: normal or near-normal female fertility; male fertility of treated plants [7]: conditionally male sterile; visible damage of treated plants [7]: not visibly damaged
9 | CP(=O)(O)CC[C@H](N)C(=O)O [L-form, L-phosphinothricin, reference compound] | – | – | oxidation of pure enantiomer in control experiments [2]: not oxidised at all
